Results on 5 compounds are retold here after ChEMBL document CHEMBL4145594, “Discovery of N-Alkyl Piperazine Side Chain Based CXCR4 Antagonists with Improved Drug-like Properties” (ACS Med Chem Lett, 2018).

The target of data set [1] is Cytochrome P450 3A4 (Homo sapiens, UniProt P08684). The experiment in a line: Inhibition of CYP3A4 (unknown origin). Type of data set: ADME.
Data set [2] addresses T1, C-X-C chemokine receptor type 4 (Homo sapiens, UniProt P61073). The experiment in a line: Agonist activity at CXCR4 in human CCRF-CEM cells measured for 90 secs by calcium flux assay. Type of data set: functional, cell-based. For orientation: Calcium assays in cells follow changes in intracellular calcium, usually with a dye or a luminescent sensor.
Data set [3] is filed under the species Homo sapiens. The experiment in a line: Therapeutic index, ratio of IC50 for AChE (unknown origin) to IC50 for CXCR4 in human CCRF-CEM cells. Type of data set: cell-based.
The target in data set [4] is T1, C-X-C chemokine receptor type 4. Nature of the data set: Antagonist activity at CXCR4 in human CCRF-CEM cells assessed as inhibition of […]-induced calcium flux pretreated for 25 mins followed by […] addition measured for 90 secs by calcium-dye based assay. Type of data set: functional, cell-based.
The nature of data set [5]: Stability in rat liver microsomes assessed as parent compound remaining at 0.5 uM after 10 mins by LC-MS analysis. On the technique in general: Liver microsomes are vesicles of endoplasmic reticulum, rich in cytochrome P450 enzymes.
A short description of data set [6]: Stability in human liver microsomes assessed as parent compound remaining at 0.5 uM after 10 mins by LC-MS analysis.
The nature of data set [7]: Stability in mouse liver microsomes assessed as parent compound remaining at 0.5 uM after 10 mins by LC-MS analysis.
The nature of data set [8]: in vitro. The settings on record: PAMPA, pH 7.4. A general note: In PAMPA a lipid-coated filter parts donor from acceptor wells.
Description: Permeability of the compound at pH 7.4 after 4 hrs by PAMPA
Data set [9] deals with Muscarinic acetylcholine receptor. Nature of the data set: Antagonist activity at mAChR in human CCRF-CEM cells assessed as inhibition of acetylcholine-induced calcium flux pretreated for 25 mins followed by acetylcholine addition measured for 90 secs by calcium-dye based assay. It counts as functional, cell-based.
Data set [10] concerns the target Cytochrome P450 2D6 (Homo sapiens, UniProt P10635).
Description: Inhibition of recombinant human CYP2D6 expressed in insect cell microsomes using AMMC as substrate pretreated for 30 mins followed by NADPH addition measured after 45 mins by fluorescence assay
Data set [11] addresses T2, Alpha-2A adrenergic receptor (Homo sapiens, UniProt P08913).
T2 sequence (P08913 whole entry): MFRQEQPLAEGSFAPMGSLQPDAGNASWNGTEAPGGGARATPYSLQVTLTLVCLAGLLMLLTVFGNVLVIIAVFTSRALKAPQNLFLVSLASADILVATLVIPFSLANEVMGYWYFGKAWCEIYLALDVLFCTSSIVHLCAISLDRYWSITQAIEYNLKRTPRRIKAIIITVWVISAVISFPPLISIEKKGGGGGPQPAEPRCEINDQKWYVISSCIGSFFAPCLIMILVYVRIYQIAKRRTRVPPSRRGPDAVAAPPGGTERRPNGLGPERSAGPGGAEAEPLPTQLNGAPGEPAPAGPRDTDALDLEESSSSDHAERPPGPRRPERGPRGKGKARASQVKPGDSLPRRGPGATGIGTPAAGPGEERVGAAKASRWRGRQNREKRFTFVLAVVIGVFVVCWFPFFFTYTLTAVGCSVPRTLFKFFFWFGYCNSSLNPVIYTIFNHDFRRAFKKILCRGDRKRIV
Nature of the data set: Inhibition of adrenergic alpha2A receptor (unknown origin).

Data set [12] has as its target Mu-type opioid receptor (Homo sapiens, UniProt P35372). Nature of the data set: Inhibition of mu opioid receptor (unknown origin).
The target in data set [13] is Acetylcholine receptor subunit alpha (Homo sapiens, UniProt P02708). The experiment in a line: Inhibition of nAChR alpha1 (unknown origin).
Acetylcholine receptor subunit alpha, sequence (P02708 whole entry): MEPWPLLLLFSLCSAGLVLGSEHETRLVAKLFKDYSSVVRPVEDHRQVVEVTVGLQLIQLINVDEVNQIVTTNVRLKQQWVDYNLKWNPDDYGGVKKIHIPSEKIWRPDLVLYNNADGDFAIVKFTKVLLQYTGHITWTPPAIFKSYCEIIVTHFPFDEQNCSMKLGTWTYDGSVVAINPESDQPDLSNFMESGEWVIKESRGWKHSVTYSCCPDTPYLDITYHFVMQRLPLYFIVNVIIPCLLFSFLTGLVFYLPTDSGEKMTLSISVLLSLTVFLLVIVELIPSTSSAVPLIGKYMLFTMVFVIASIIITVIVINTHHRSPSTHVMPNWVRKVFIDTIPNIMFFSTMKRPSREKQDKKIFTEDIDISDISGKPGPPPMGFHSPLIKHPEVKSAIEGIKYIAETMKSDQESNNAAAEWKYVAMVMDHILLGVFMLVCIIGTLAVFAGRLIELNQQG
Data set [14] has as its target Acetylcholinesterase (Homo sapiens, UniProt P22303). Nature of the data set: Inhibition of AChE (unknown origin).
The species named for data set [15] is Homo sapiens. The experiment in a line: Therapeutic index, ratio of IC50 for adrenergic alpha2A receptor (unknown origin) to IC50 for CXCR4 in human CCRF-CEM cells. Type of data set: cell-based.
The species named for data set [16] is Homo sapiens. The experiment in a line: Therapeutic index, ratio of IC50 for mu opioid receptor (unknown origin) to IC50 for CXCR4 in human CCRF-CEM cells. Type of data set: cell-based.
For data set [17], the species on record is Homo sapiens. The experiment in a line: Therapeutic index, ratio of IC50 for nAChR alpha1 (unknown origin) to IC50 for CXCR4 in human CCRF-CEM cells. It counts as cell-based.

Structures are written as SMILES. The source made the active and inactive calls. The rule behind the calls is not given here.

Cytochrome P450 3A4, sequence (P08684 whole entry): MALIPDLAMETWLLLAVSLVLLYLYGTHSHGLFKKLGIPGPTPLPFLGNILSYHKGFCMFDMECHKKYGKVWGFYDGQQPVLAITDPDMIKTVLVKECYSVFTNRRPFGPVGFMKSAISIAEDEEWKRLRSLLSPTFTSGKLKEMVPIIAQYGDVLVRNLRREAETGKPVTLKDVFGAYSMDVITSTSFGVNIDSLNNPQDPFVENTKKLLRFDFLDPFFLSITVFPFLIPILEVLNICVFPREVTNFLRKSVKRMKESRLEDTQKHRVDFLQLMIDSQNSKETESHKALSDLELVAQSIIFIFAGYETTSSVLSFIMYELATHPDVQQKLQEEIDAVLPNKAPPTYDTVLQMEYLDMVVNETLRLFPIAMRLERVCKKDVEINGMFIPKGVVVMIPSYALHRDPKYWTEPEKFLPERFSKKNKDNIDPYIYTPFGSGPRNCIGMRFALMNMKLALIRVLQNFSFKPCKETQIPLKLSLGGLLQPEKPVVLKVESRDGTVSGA
Cytochrome P450 2D6, sequence (P10635 whole entry): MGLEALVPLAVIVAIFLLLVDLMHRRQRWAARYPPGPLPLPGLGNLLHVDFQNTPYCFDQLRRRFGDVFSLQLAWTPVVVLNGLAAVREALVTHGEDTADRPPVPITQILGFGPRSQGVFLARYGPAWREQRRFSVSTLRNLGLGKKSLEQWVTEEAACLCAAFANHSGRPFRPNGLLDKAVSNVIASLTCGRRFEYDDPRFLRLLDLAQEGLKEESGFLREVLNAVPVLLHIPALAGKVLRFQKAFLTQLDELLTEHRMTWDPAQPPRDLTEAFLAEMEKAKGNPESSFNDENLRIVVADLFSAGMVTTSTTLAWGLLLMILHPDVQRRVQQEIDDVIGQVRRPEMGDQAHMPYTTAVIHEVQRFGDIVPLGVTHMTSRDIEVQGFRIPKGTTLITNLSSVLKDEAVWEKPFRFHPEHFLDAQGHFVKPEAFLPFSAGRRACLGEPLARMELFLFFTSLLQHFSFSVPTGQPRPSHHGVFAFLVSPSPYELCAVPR
Acetylcholinesterase, sequence (P22303 whole entry): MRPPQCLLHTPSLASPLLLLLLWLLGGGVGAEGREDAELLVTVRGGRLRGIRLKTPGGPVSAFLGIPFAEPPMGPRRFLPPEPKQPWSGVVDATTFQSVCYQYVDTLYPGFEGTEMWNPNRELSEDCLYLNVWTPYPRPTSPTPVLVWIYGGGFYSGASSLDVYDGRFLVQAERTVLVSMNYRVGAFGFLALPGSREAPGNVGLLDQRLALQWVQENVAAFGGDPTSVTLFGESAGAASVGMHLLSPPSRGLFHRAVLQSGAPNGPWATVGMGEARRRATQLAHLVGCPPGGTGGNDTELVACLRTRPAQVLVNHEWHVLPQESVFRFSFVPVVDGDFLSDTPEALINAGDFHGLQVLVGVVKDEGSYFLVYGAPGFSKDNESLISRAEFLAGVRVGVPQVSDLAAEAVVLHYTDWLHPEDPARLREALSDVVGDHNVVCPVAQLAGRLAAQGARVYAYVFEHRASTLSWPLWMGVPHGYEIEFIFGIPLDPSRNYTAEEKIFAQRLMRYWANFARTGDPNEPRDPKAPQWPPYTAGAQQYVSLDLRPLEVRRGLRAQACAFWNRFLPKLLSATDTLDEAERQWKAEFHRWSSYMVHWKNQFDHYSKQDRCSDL
T1 sequence (P61073 whole entry): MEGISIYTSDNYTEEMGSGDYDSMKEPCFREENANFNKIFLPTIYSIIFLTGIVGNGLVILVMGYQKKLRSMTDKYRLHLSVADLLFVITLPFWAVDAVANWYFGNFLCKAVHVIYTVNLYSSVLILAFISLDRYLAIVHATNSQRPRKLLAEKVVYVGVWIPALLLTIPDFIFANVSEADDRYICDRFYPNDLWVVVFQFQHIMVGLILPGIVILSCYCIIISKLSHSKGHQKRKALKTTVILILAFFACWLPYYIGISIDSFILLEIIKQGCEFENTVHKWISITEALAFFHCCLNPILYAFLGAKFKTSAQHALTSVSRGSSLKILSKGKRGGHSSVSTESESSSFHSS
Mu-type opioid receptor, sequence (P35372 whole entry): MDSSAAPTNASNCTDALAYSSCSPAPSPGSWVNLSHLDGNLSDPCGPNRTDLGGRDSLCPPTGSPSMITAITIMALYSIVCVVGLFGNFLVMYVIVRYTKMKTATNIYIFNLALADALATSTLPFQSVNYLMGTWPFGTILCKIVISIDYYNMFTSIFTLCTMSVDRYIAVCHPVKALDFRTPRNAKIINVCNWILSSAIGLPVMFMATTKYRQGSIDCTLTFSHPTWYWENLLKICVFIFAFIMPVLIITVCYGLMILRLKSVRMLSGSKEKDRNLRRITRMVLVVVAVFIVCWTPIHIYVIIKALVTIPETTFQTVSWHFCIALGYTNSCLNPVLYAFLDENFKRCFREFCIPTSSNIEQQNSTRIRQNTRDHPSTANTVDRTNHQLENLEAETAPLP

`c1ccc2c(c1)CN[C@@H](CN(CCN1CCNCC1)[C@H]1CCCc3cccnc31)C2`: the IC50 (commonly the concentration that inhibits the measured activity by half) is more than 12 µM in data set [1], 0.553 µM in data set [4], more than 14 µM in data set [9] and 4.21 µM in data set [10]. In addition, in data set [2], the outcome was inactive. For the same compound, in data set [3], the Ratio IC50 was less than 100. The share remaining (as a rule, what is left of the initial amount, in per cent) at 10 min, 0.5 µM in data set [5] is 62%; in [6], 96%; in [7], 79%. Also, the apparent permeability coefficient (Papp) (commonly the rate of passage across a membrane or cell layer, normalised by area and donor concentration) at 4 h in [8] came to 1 ×10⁻⁶ cm/s.

Regarding `CN1CCN(CCCN(CC2Cc3ccccc3CN2C)[C@H]2CCCc3cccnc32)CC1` (single isomer, unassigned), the IC50 in data set [1] was more than 20 µM; in data set [4] it was 0.536 µM; in data set [9], more than 17 µM; in [10] it was 5.14 µM. For the same compound, the outcome in data set [2] was inactive. The share remaining at 10 min, 0.5 µM in data set [5] was found to be 2%; in data set [6], 60%; in [7] it was 43%. The compound further yielded a Papp at 4 h in data set [8] of 51.3 ×10⁻⁶ cm/s.

Turning to `NCCCCN(C[C@H]1Cc2ccccc2CN1)[C@H]1CCCc2cccnc21`, the result in data set [2] was inactive. Further, the IC50 in [11] is 3.7 µM; in data set [12], 14.9 µM; in data set [13] it was more than 30 µM; in data set [14], more than 30 µM.

For the compound `c1ccc2c(c1)CN[C@@H](CN(CC[C@H]1CCCNC1)[C@H]1CCCc3cccnc31)C2`, the IC50 in data set [1] is more than 12 µM; in [11] it was 5.9 µM; in [4], 0.016 µM; in [12], 11.3 µM; in [13] it was 11.3 µM; in [14], 10.7 µM. Moreover, the IC50 is more than 14 µM in data set [9] and 0.11 µM in [10]. In addition, in data set [2], the outcome was inactive. The Ratio IC50 was less than 100 in data set [3], 100 to 1000 in [15], 100 to 1000 in data set [16] and less than 100 in data set [17]. The share remaining at 10 min, 0.5 µM in [5] was determined as 55%; in [6] it was 93%; in [7], 56%. In addition, the apparent permeability (Papp) at 4 h in data set [8] came out at 5.5 ×10⁻⁶ cm/s.

In the case of `c1ccc2c(c1)CN[C@@H](CN(CCCN1CCNCC1)[C@H]1CCCc3cccnc31)C2`, the concentration for half-maximal inhibition (IC50) is more than 12 µM in data set [1]; more than 30 µM in [11]; 0.017 µM in data set [4]; more than 30 µM in data set [12]; more than 30 µM in data set [13]; more than 30 µM in [14]. In addition, the IC50 was more than 14 µM in [9] and 2.14 µM in [10]. For the same compound, the outcome in data set [2] was inactive. The Ratio IC50 in [3], in data set [15], in [16] and in [17] was less than 100 throughout. The amount remaining at 10 min, 0.5 µM is 100% in data set [5], 100% in [6] and 92% in data set [7].
